Patent publication US11679168B2, “Caspase-3-triggered molecular self-assembling PET probes and uses thereof” (The Board of Trustees of the Leland Stanford Junior …, priority 2018, dated 2023)
Values joined by “and” are separate entries in the source; they are usually repeats but may differ in a detail not shown here. Equal values may be shown once. Read-outs that look alike come from different tables or passages of the source. Square brackets hold non-standard residues; d marks the D form. Peptide text beside a SMILES is read from it. * marks the point of attachment. NH(CH2)3O(2-CNpyrimidin5yl) = N#Cc1ncc(OCCCN*)cn1; 4Amb = NCc1ccc(C(=O)O)cc1; Pra = C#CC[CH](N)C(=O)O; SEt = CCS*

Experiments:
[1] = cited from earlier work; for 2nd order rate constant k: aromatic nitrile with L-cysteine, reported in Reference 13
[2] = system: β-galactosidase activity in 9L/LacZ cells
Experimental: FIG. 33 illustrates quantification of fluorescent intensity in the flow cytometry data in FIG. 3G.
Confocal Microscopy Imaging of 9L/LacZ Cell With B-SNAF2/4-BDP: Cells were incubated with B-SNAF2-BDP or B-SNAF4-BDP (2 μM) at 37° C. for 2 hours and then were then washed three times with cold PBS. The cells were fixed with 4% paraformaldehyde and stained with 2 μM Hoechst 33258 (Sigma) for 10 min. The cells were washed three times with PBS mounted with 2 μM Hoechst 33258 (Sigma) at 37° C. for 20 min. Cells were then fixed and imaged using a confocal laser scanning microscope (Zeiss LSM710; Zeiss America) with DAPI and DsRed filters. The images were processed using the ImageJ software package (National Institutes of Health).

[3] = Intramolecular cyclization kinetics (HPLC assay); assay type: physicochemical; conditions: PBS, pH 7.4, room temperature
Experimental: General Methods for Measuring Intramolecular Cyclization Kinetics: The 1st order rate constants of intramolecular cyclization of I-VI to produce cycl-I-VI, respectively were measured by HPLC assays adapted from the previously reported assay^38. To solutions of substrates I-VI in phosphate buffered saline (PBS) (1×, pH=7.4) were added a solution of TCEP (2.0 equiv.) in PBS (freshly prepared and the pH was adjusted to 7.4 by 1 N sodium hydroxide aqueous solution), affording a final concentration of 100 μM for the substrates. The mixture was kept at room temperature (23° C.) and monitored by HPLC at different time points. The concentration of remaining starting material was calculated using the peak integrals of the starting material at 254 nm. Based on first-order reaction law, In([At]/[A0]) was plotted against time and the slope of the linear regression result gives the first-order rate constant.

[4] = DLS of nanoaggregates of cyclized products; assay type: physicochemical; conditions: 10 μM, after raising pH from 4 to 7.4
Experimental: DLS Measurements: DLS measurements samples of I-VI were prepared by diluting fresh stock solutions of I-VI (20 mM in DMSO) to 10 μM solutions with HCl aqueous solution to adjust pH to 4. DLS measurements samples of cycl-I-VI were prepared by adding 0.5 μL of freshly prepared stock solutions of 1-VI (20 mM in DMSO), 6 μL saturated sodium bicarbonate solution into 993.5 μL H2O to adjust pH to 7.4.

[5] = Condensation kinetics of aromatic nitriles with L-cysteine (HPLC assay); assay type: physicochemical; conditions: for 2nd order rate constant k: aromatic nitrile with L-cysteine, PBS buffer, room temperature, HPLC assay; for second-order reaction rate: cyano-substituted aromatic with L-cysteine, phosphate-buffered saline (pH=7.4), FIG. 50A
Experimental: (§1) General Methods for Measuring Kinetics of Condensation Reactions Between Aromatic Nitriles and Aminothiols: The 2nd order rate constants for condensation reactions between aromatic nitriles and aminothiols were measured by using HPLC assays. To solutions of aromatic nitriles (100 μM) in phosphate buffered saline (PBS) (1×, pH=7.4) were added aminothiol (1.0 equiv.), TCEP (2.0 equiv.) and NaHCO3 (3 equiv.). The reaction solutions were kept at room temperature (23° C.) and monitored by HPLC at different time points. The conversion rates were calculated using the peak integrals of aromatic nitriles and the condensation products at 254 nm. Based on 2nd order reaction law, 1/[aromatic nitrile] was plotted against time and the slope of the linear regression result gives the 2nd order rate constant.

[6] = Condensation kinetics of aminothiols with CBT (HPLC assay); assay type: physicochemical; conditions: for 2nd order rate constant k: aminothiol with CBT, PBS buffer, room temperature, HPLC assay; for second-order reaction rate: substituted cysteine analogues with CBT, FIG. 50B
Experimental: as §1

[7] = system: MetAP2 activity in PC3 cells; assay: Imaging MetAP2 activity in PC3 cells (post click Cy5 labeling); assay type: cell-based, human; conditions: for Cy5 post-labeled fluorescence in cells: 24 h
Experimental: FIG. 45B illustrates fluorescence microscopy imaging of cy5 post-labeled M-SNAT (20 μM) with or without TNP470 and M-SNAT-ctrl (20 μM) in PC3 cells. Permealized cells were also stained with DAPI (blue).
Imaging MetAP2 activity in cancer cells: Cell uptake and MetAP2 specific activation of M-SNAT and M-SNAT-ctrl were evaluated in PC3 and DU145 cells with the MetAP2-specific inhibitor TNP-470. Post click fluorescent labeling was performed as illustrated in FIG. 45A to locate the nanoaggregation in cells and avoid the possible interference with probe uptake by pre-conjugating a large Cy5 fluorophore.

[8] = system: MetAP2 activity in DU145 cells; assay: Imaging MetAP2 activity in DU145 cells (post click Cy5 labeling); assay type: cell-based, human; conditions: for Cy5 post-labeled fluorescence in cells: DU145, 20 μM, 24 h
Experimental: Imaging MetAP2 activity in cancer cells: […] Post click fluorescent labeling was performed as illustrated in FIG. 45A to locate the nanoaggregation in cells and avoid the possible interference with probe uptake by pre-conjugating a large Cy5 fluorophore.

recombinant human MetAP2 = recombinant human MetAP2 (Homo sapiens, UniProt P50579); assay: Macrocyclization and nanoaggregation of M-SNAT with recombinant MetAP2; conditions: for macrocyclization (HPLC, mass spectrometry): TCEP
[9] = system: MetAP2 activity in 22Rv1 cells; assay: Imaging MetAP2 activity in 22Rv1 cells (post click Cy5 labeling); assay type: cell-based, human
PC3 tumors = assay: 18F-M-SNAT PET/CT imaging of PC3 xenograft mice; assay type: in vivo
Experimental: FIG. 47A illustrates images after 90 min programed PET/CT scan; n=4. About 150 μCi ^18F-M-SNAT were injected. White and gray indicate CT signal; a thresholding method was utilized to mask the relatively high uptake in liver, spleen, kideney and bladder.
PET/CT imaging of MetAP2 activity in tumor: Before applying fluorine-18 labeled M-SNAT (^18F-M-SNAT) for studies in vivo, the stability of non-radioactive ^19F-M-SNAT was investigated in mouse serum. The ability of ^18F-M-SNAT to indicate MetAP2 activity was assessed in male nude mice bearing subcutaneous PC3 tumors. When the tumors (right shoulder) were grown to 300-500 mm^3, PBS with or without TNP-470 were injected subcutaneously at 50 mg/kg at a remote position (lower left on the back) every other day for 4 days and then injected every day for 5 more days. The last injection was 4 h before imaging (FIG. 47A).
On the day of imaging, fluorine-18 was generated using a cyclotron and conjugated to M-SNAT in a rapid two-step chemical synthesis (FIG. 44). About 150 μCi (8.9 pmol)^18F-M-SNAT were injected to mice intravenously for a programed microPET/CT whole body scan through 90 min. […] About 1.3% was retained at 90 min. In comparison, the inhibitor-treated mice hold about 1% ID/cc through the whole scanning period (FIG. 47C). […] Tumors were resected 20 h after tracer injection for IHC staining ex vivo.

Sequence of recombinant human MetAP2 (P50579 whole entry): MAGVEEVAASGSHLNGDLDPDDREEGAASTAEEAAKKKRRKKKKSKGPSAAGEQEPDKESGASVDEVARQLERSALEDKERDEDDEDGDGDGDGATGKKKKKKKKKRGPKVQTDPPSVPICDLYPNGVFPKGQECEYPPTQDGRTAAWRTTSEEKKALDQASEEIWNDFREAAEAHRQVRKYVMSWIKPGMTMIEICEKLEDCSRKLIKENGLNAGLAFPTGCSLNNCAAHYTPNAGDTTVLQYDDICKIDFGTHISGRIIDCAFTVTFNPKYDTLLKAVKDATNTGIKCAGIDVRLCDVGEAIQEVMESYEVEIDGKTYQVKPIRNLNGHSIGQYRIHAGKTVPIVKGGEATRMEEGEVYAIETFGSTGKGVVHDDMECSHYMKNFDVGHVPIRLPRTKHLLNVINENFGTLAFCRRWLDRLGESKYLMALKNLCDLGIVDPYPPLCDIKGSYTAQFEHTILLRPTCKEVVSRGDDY

Cc1csc(C#N)n1 [4-methyl-2-thiazolecarbonitrile]
second-order reaction rate ([1]; with cysteine, Ye et al. (2011)): 0.7 M⁻¹ s⁻¹

CCSSCC(NC(=O)OCc1ccc(OC2O[C@H](CO)[C@H](O)[C@H](O)C2O)cc1)C(=O)NCC(=O)NC(CCCCNC(=O)CCc1ccc2n1[B-](F)(F)[N+]1=C(C)C=C(C)C1=C2)C(=O)NCc1ccc(C(=O)NCCCOc2cnc(C#N)nc2)cc1 (stereo partly drawn) [B-SNAF4-BDP]
retention of fluorescent signal, 9L/LacZ over 9L/Luc ([2]; 2 μM, 37° C., 2 hours): 2.5 fold | retention of fluorescent signal, 9L/LacZ versus 9L/Luc ([2]; fluorescent imaging): significantly higher retention

C#CCC(NC(=O)C(N)CS)C(=O)NCc1ccc(C(=O)NCCCOc2ccc3nc(C#N)ccc3c2)cc1 (stereo not drawn) [Compound II]
1st order rate constant of intramolecular cyclization [3]: 1.2×10^−3 s^−1 and 1.2±0.04×10^−3 s^−1 | diameter of nanoaggregates (DLS) [4]: 80 nm

N#Cc1ccc2cc(OCCCNC(=O)c3ccc(CNC(=O)C(N)CS)cc3)ccc2n1 (stereo not drawn) [Compound I]
diameter of nanoaggregates (DLS) [4]: 80 nm

N#Cc1ccccn1 [Entry 3, 2-pyridinecarbonitrile]
2nd order rate constant k [1]: No Rxn^a | 2nd order rate constant k ([1]; listed as 2-pyridinecarbonitrile): no reaction was observed

N#Cc1ncc(Br)cn1 [Entry 4, 5-bromo-2-pyrimidinecarbonitrile]
2nd order rate constant k [5]: 2.21 ± 0.037 M⁻¹ s⁻¹ | 2nd order rate constant k ([5]; listed as 5-bromo-2-pyrimidinecarbonitrile): 2.21 M⁻¹ s⁻¹ | second-order reaction rate [5]: 0.58 M⁻¹ s⁻¹

N#Cc1ncccn1 [Entry 5, 2-pyrimidinecarbonitrile]
2nd order rate constant k [5]: 0.99 ± 0.17 M⁻¹ s⁻¹ | 2nd order rate constant k ([5]; listed as 2-pyrimidinecarbonitrile): 0.99 M⁻¹ s⁻¹ | second-order reaction rate [5]: 0.17 M⁻¹ s⁻¹

CC(C)(C)OC(=O)NCCCOc1cnc(C#N)nc1 [Entry 6]
2nd order rate constant k [5]: 0.01 ± 0.0017 M⁻¹ s⁻¹ | 2nd order rate constant k ([5]; listed as alkoxy-substituted 2-pyrimidinecarbonitrile): 0.01 M⁻¹ s⁻¹

CC(C)(S)[C@@H](N)C(=O)O [Entry 7, D-penicillamine]
2nd order rate constant k [6]: 0.029 ± 0.003 M⁻¹ s⁻¹ | 2nd order rate constant k ([6]; listed as D-penicillamine): 0.029 M⁻¹ s⁻¹ | second-order reaction rate [6]: 0.06 M⁻¹ s⁻¹

C[C@](N)(CS)C(=O)O [Entry 8, 2-methyl-L-cysteine]
2nd order rate constant k [6]: 5.35 ± 0.8 M⁻¹ s⁻¹ | 2nd order rate constant k ([6]; listed as 2-methyl-L-cysteine): 5.35 M⁻¹ s⁻¹ | second-order reaction rate [6]: 5.7 M⁻¹ s⁻¹

C#CCC(NC(=O)CNC(=O)C(CSC)NC(=O)C(N)CCSC)C(=O)NCc1ccc(C(=O)NCCCOc2cnc(C#N)nc2)cc1 (stereo not drawn) [M-SNAT-ctrl] (H-MC(Me)G[Pra][4Amb]-{NH(CH2)3O(2-CNpyrimidin5yl)}; configuration not given here)
Cy5 post-labeled fluorescence in cells ([7]; PC3, 20 μM): not | Cy5 post-labeled fluorescence in cells [8]: not | macrocyclization (HPLC, mass spectrometry) (recombinant human MetAP2; 10 μM, MetAP2 7.5 μg/ml, 24 h): could not cyclize

C#CCC(NC(=O)CNC(=O)C(CSSCC)NC(=O)C(N)CCSC)C(=O)NCc1ccc(C(=O)NCCCOc2cnc(C#N)nc2)cc1 (stereo not drawn) [M-SNAT] (H-MC(SEt)G[Pra][4Amb]-{NH(CH2)3O(2-CNpyrimidin5yl)}; configuration not given here)
Cy5 post-labeled fluorescence in cells ([7]; MetAP2 knockdown PC3 cells): much weaker red fluorescence | Cy5 post-labeled fluorescence in cells ([7]; PC3, 20 μM): red fluorescence was observed | accumulation in cells ([8]; DU145): dose-dependent manner | Cy5 post-labeled fluorescence in cells [8]: red fluorescence was observed | Cy5 post-labeled fluorescence in cells ([9]; MetAP2 knockdown 22Rv1 cells, 24 h): much weaker red fluorescence | average diameter of nanoparticles (DLS, TEM) (recombinant human MetAP2; 10 μM, MetAP2 7.5 μg/ml, 24 h): 861 nm | diameter range of nanoparticles (recombinant human MetAP2; 10 μM, MetAP2 7.5 μg/ml, 24 h): 531-1281 nm | macrocyclization (HPLC, mass spectrometry) (recombinant human MetAP2; 10 μM, MetAP2 7.5 μg/ml, 24 h): converted into M-SNAT-cyclized | average diameter of nanoparticles (DLS) (recombinant human MetAP2; FIG. 44B): 861 nM | diameter range of nanoparticles (DLS) (recombinant human MetAP2; FIG. 44B): 531 to 1281 nM

CO[C@@H]1[C@H](OC(=O)NC(=O)CCl)CC[C@]2(CO2)[C@H]1[C@@]1(C)O[C@@H]1CC=C(C)C [TNP-470, reference compound]
effect on M-SNAT fluorescence ([7]; PC3, TNP-470 2 μM): significantly reduced | inhibition of M-SNAT signal (flow cytometry) ([7]; PC3 cells treated, permealized and post-labeled): 22.7% | effect on M-SNAT fluorescence ([9]; 22Rv1, TNP-470 2 μM): significantly reduced | tumor growth versus PBS-treated group (PC3 tumors; 50 mg/kg s.c., PC3 tumors): no significant difference

CCSSCC(NC(=O)C(N)CCSC)C(=O)NCC(=O)NC(Cc1cn(CCOCCOCCOCC[18F])nn1)C(=O)NCc1ccc(C(=O)NCCCOc2cnc(C#N)nc2)cc1 (stereo not drawn) [^18F-M-SNAT]
tumor retention (PC3 tumors; PBS-treated PC3 tumors, at 90 min): About 1.3% | tumor uptake (PC3 tumors; PBS-treated PC3 tumors, within 10 min): 1.6 % ID/cc | clearance (PC3 tumors; PC3 xenograft mice, 90 min PET/CT): fast clearance by kidney to bladder | tumor uptake (PC3 tumors; TNP-470 (inhibitor)-treated mice, whole scanning period): about 1 % ID/cc

C#CCC1NC(=O)C2CSC(=N2)c2ccc3cc(ccc3n2)OCCCNC(=O)c2ccc(cc2)CNC1=O (stereo not drawn) [cycl-II]
diameter of nanoaggregates (DLS) [4]: around 80 nm

C#CCC1NC(=O)CNC(=O)C2CSC(=N2)c2ncc(cn2)OCCCNC(=O)c2ccc(cc2)CNC1=O (stereo not drawn) [cycl-IV]
1st order rate constant of intramolecular cyclization [3]: 2.1±0.07×10^−3 s^−1

O=C1NCCCOc2ccc3nc(ccc3c2)C2=NC(CS2)C(=O)NCc2ccc1cc2 (stereo not drawn) [cycl-I]
diameter of nanoaggregates (DLS) [4]: around 80 nm

C#CCC1NC(=O)CNC(=O)C2(C)CSC(=N2)c2ncc(cn2)OCCCNC(=O)c2ccc(cc2)CNC1=O (stereo not drawn) [cycl-VI]
1st order rate constant of intramolecular cyclization [3]: 2.7±0.1×10^−3 s^−1

C#CCC1NC(=O)CCNC(=O)C2CSC(=N2)c2ncc(cn2)OCCCNC(=O)c2ccc(cc2)CNC1=O (stereo not drawn) [cycl-V]
1st order rate constant of intramolecular cyclization [3]: 8.0±0.6×10^−4 s^−1
